The numbers were not newly measured in patent EP1844783A1 (priority 2006, dated 2007), which cites them from elsewhere.

The test system of the data set is EAE. The note with it: Craner et al., 2005.

For `O=C1NC(=O)C(c2ccccc2)(c2ccccc2)N1` [phenytoin], the “ameliorates the inflammatory cell infiltrate in EAE” value is reported as 75%.
